Patent US9834514B2, “Antibiotic sensitivity-restoring and photosensitive agents” (New Mexico Tech Research Foundation, priority 2015, dated 2017)
Converted amounts (≈) assume the structure as drawn. Like-named read-outs stand apart in the source and are kept apart here.

How the values were obtained:
Gram-positive bacteria = assay: Bacterial patterning (chessboard mask) with light and compound 1; assay type: cell-based
Description: A chessboard mask was then placed on top of the agar plate. […] The agar plate was then inoculated with bacteria and incubated overnight at 37° C.

[1] = test system: S. mutans (Ward's 85W 2357); assay: Light-activated killing, colony counts; assay type: cell-based; details: for Dark Toxicity: no light; for Light Toxicity: white light 2 minutes
Description: (§1) Dose-dependent effects of treating bacteria with compound 1 and irradiation with white light were assessed by treating 10^8 CFU/mL of cells with compound 1, followed by irradiation with white light for 2 minutes. Compound 1 was added at a specific concentration to 1 mL of a 10^8 CFU/mL suspension of the respective bacterial cells, and the cells were incubated at 37° C. for approximately 45 minutes on a rotary shaker at 150 rpm. 0.5 mL of the cell suspension was removed and placed into the wells of a sterile ceramic drop plate, and then the cells were irradiated with white light from a Lumacare™ LC 122A light source for 2 minutes at a distance of approximately 3 cm. The time and distance of the light application delivered about 85 J/cm^2 of 400-700 nm light to the sample. After being irradiated, ten-fold dilutions were made of each cell sample. The dilutions were drip-streaked onto a tryptic soy agar (TSA) plate and incubated at 37° C. for 18-24 hours. Enumeration of bacteria was determined from the dilution, which produced a drip-streak containing approximately 30-300 colonies. After counting the colonies, the CFU/mL was calculated by applying the respective dilution factor and a factor of 100 to account for the 10 μL of sample taken. Appropriate controls were prepared, including cells with no treatment, cells with only compound 1 added, and cells only treated with light.
(§2) The error bars in FIG. 13 represent the variations between three replicate determinations.

S. pyogenes ATCC 8133 = assay: Resensitization to antibiotics (log reduction, TABLE 29); assay type: cell-based; details: compound 1 μM; Light (2 min)
VRE (ATCC No. 51299) = assay: Light-activated killing, colony counts; assay type: cell-based, Enterococcus faecalis; details: for Dark Toxicity: no light; for Light Toxicity: white light 2 minutes
Description: as §1
The error bars in FIG. 11 represent the variations between three replicate determinations.

E. coli = assay: Checkerboard assay (FICI); assay type: cell-based; details: with PMB
Description: (§3) Another method for determining synergy is a checkerboard assay. A checkerboard assay is performed whereby one of the test compounds is serially diluted horizontally across a plate, while the other test compound is serially diluted vertically down the plate. The perpendicular serial dilutions result in combinations of the compounds that range in concentrations from the highest to the lowest of each compound added. In the present study, the checkerboard assay method was adjusted by serially diluting one of the test compounds horizontally and adding the second drug to each well at a concentration of ¼ MIC. The 24-well microtiter plate was then incubated at 37° C. for 18-24 hours on a rotary shaker incubator at 150 rpm. After incubation, MTT reagent was added to each well at a 10% sample volume. Synergy was determined on the lowest concentration of the combined drugs, which produced no purple coloring. Calculation of synergy was determined by the Fractional Inhibitory Concentration Index (FICI): FICI=([Drug 1]Synergy/[Drug1]MIC)+([Drug 2]Synergy/[Drug 2]MIC). FICI≦0.5 is an indication of synergy.
(§4) TABLE 17 details the obtained FICI values for compound 1 in combination with varying antibiotics against MRSA, A. baumannii, and E. coli.

A. baumannii = assay: Checkerboard assay (FICI); assay type: cell-based; details: with PMB
Description: as §3, §4

MRSA [2] = assay: Minimum bactericidal concentration (MBC) with and without white light; assay type: cell-based, S. aureus; details: Staphylococcus aureus, light or radiation study
Description: The bacterial media was inoculated with bacteria and incubated overnight. The bacterial cultures were diluted to 5×10^8 CFU/mL using a McFarland latex turbidity standard (0.5). Compound 1 was diluted with sterile DMSO, which was added to the cell suspension in glass culture tubes. The cells were then incubated for 30 minutes at 37° C. on a rotary shaking incubator at 150 rpm. 500 μL of the treated cell suspension was added to a well on a sterile ceramic drop plate. Non-coherent white light from a Lumacare™ LC-122 unit was used to irradiate the samples. The end of the light probe was placed 3 cm above the sample well, perpendicular to the surface of the sample, and light was applied for 2 minutes (15 seconds light, 15 seconds dark). 200 μL of the irradiated sample was transferred to a 96-well plastic microtiter plate and five ten-fold dilutions were made in the media. 10 μL of each dilution was dripped onto an agar media plate and was allowed to streak down the plate by tilting the plate down. The agar plates were incubated at 37° C. overnight and colony counts were performed to calculate the CFU/mL.
TABLE 14 details the MBC values of compounds 1-6 against MRSA with and without irradiation with white light. Irradiation involved treatment with a LumaCare™ light source at 3 cm from media for 1 min.

[3] = test system: S. mutans (Ward's 85W 2357); assay: MIC against S. mutans; assay type: cell-based; details: Streptococcus mutans; compound alone
Text: as §2

MRSA [4] = assay: Checkerboard assay (FICI); assay type: cell-based, S. aureus
Description: as §3, §4

Clc1ccc(/C=C/c2[nH]c3ccccc3c2/C=C/c2ccc(Cl)cc2)cc1 [Compound 1]
MIC (Gram-positive bacteria): 400 µM (≈ 156 µg/mL) | bacterial growth on irradiated agar plate (Gram-positive bacteria; agar with 20 μM compound 1, white light through chessboard mask, FIG. 5): inhibition of bacterial growth in the illuminated parts of the agar plate | Dark Toxicity ([1]; 0.1 μM): 2.6 × 10^8 ± 5.57 × 10^7 CFU/mL | Light Toxicity ([1]; 0.1 μM): 2.35 × 10^5 ± 3.50 × 10^5 CFU/mL | Dark Toxicity ([1]; 0.5 μM): 1.44 × 10^8 ± 4.46 × 10^7 CFU/mL | Light Toxicity ([1]; 0.5 μM): 2.33 × 10^3 ± 1.54 × 10^3 CFU/mL | Dark Toxicity ([1]; 1.0 μM): 2.1 × 10^5 ± 1.13 × 10^5 CFU/mL | Light Toxicity ([1]; 1.0 μM): None Detected (<100 CFU/mL) | Dark Toxicity ([1]; 5.0 μM): 5.5 × 10^4 ± 2.48 × 10^4 CFU/mL | Light Toxicity ([1]; 5.0 μM): None Detected (<100 CFU/mL) | Log Reduction (S. pyogenes ATCC 8133): 6-7 | Dark Toxicity (VRE (ATCC No. 51299); 0.1 μM): 6.50 × 10^8 ± 5.40 × 10^8 CFU/mL | Light Toxicity (VRE (ATCC No. 51299); 0.1 μM): 7.00 × 10^2 ± 8.19 × 10^2 CFU/mL | Dark Toxicity (VRE (ATCC No. 51299); 0.5 μM): 6.50 × 10^8 ± 1.32 × 10^8 CFU/mL | Light Toxicity (VRE (ATCC No. 51299); 0.5 μM): 2.67 × 10^2 ± 4.62 × 10^2 CFU/mL | Dark Toxicity (VRE (ATCC No. 51299); 1.0 μM): 6.20 × 10^8 ± 2.62 × 10^8 CFU/mL | Light Toxicity (VRE (ATCC No. 51299); 1.0 μM): None detected (<100 CFU/mL) | Dark Toxicity (VRE (ATCC No. 51299); 5.0 μM): 4.55 × 10^5 ± 8.87 × 10^5 CFU/mL | Light Toxicity (VRE (ATCC No. 51299); 5.0 μM): None detected (<100 CFU/mL) | FIC Index (E. coli): 0.2 | FIC Index (A. baumannii): 0.1 | MBC (MRSA [2]; 1 min, LumaCare light source at 3 cm from media for 1 min, read-out: MBC with irradiation): 1 µM (≈ 0.39 µg/mL) | MBC (MRSA [2]; no irradiation, read-out: MBC in the dark): 200 µM (≈ 78.1 µg/mL) | MIC [3]: 50 to 100 µM (≈ 19.5 to 39 µg/mL) | FIC Index (MRSA [4]; with Amoxicillin): 0.3 | FIC Index (MRSA [4]; with Ampicillin): 0.13 | FIC Index (MRSA [4]; with Dicloxicillin): 0.04 | FIC Index (MRSA [4]; with Norfloxacin): 0.3 | FIC Index (MRSA [4]; with Tetracycline): 0.4
